The values below come from patent publication US6352958B1, “Cycloimido-substituted benzofused heterocyclic herbicides” (FMC Corporation, priority 1997, dated 2002).

What all share (format): in vivo
Test [1] relates to velvetleaf (Abutilon theophrasti). Nature of the test: Postemergence herbicidal activity, velvetleaf. As to conditions: rate of application 0.3 Kg/Ha, rated after 12-17 days.
In test [2] the test system is field corn (Zea mays var. Pioneer 3732). Nature of the test: Preemergence herbicidal activity, corn. As to conditions: Rate of Application 0.3 Kg/Ha, examined after 12-17 days.
In test [3] the test system is Johnsongrass (Sorghum halepense). Nature of the test: Preemergence herbicidal activity, johnsongrass. To be noted: Rate of Application 0.3 Kg/Ha, examined after 12-17 days.
For test [4], the system named is velvetleaf (Abutilon theophrasti). The test can be described thus: Preemergence herbicidal activity, velvetleaf. To be noted: Rate of Application 0.3 Kg/Ha, examined after 12-17 days.
Test [5] concerns morningglory (Ipomea lacunosa or Ipomea hederacea). The test can be described thus: Postemergence herbicidal activity, morningglory. To be noted: rate of application 0.3 Kg/Ha, rated after 12-17 days.
Test [6] concerns common cocklebur (Xanthium strumarium L.). The test can be described thus: Postemergence herbicidal activity, cocklebur. As to conditions: rate of application 0.3 Kg/Ha, rated after 12-17 days.
Test [7] has as its system green foxtail (Setaria viridis). Nature of the test: Postemergence herbicidal activity, green foxtail. As to conditions: rate of application 0.3 Kg/Ha, rated after 12-17 days.
In test [8] the test system is soybean (Glycine max var. Winchester). Nature of the test: Preemergence herbicidal activity, soybean. As to conditions: Rate of Application 0.3 Kg/Ha, examined after 12-17 days.
The test system of test [9] is blackgrass (Aloepecurus myosuroides). Nature of the test: Preemergence herbicidal activity, blackgrass. To be noted: Rate of Application 0.3 Kg/Ha, examined after 12-17 days.
For test [10], the system named is Johnsongrass (Sorghum halepense). Nature of the test: Postemergence herbicidal activity, johnsongrass. To be noted: rate of application 0.3 Kg/Ha, rated after 12-17 days.
Test [11] relates to morningglory (Ipomea lacunosa or Ipomea hederacea). The test can be described thus: Preemergence herbicidal activity, morningglory. As to conditions: Rate of Application 0.3 Kg/Ha, examined after 12-17 days.
Test [12] relates to blackgrass (Aloepecurus myosuroides). The test can be described thus: Postemergence herbicidal activity, blackgrass. As to conditions: rate of application 0.3 Kg/Ha, rated after 12-17 days.
Test [13] relates to wheat (Triticum aestivum var. Lew). The test can be described thus: Preemergence herbicidal activity, wheat. To be noted: Rate of Application 0.3 Kg/Ha, examined after 12-17 days.
The test system is the same in test [14]. The test can be described thus: Postemergence herbicidal activity, wheat. To be noted: rate of application 0.3 Kg/Ha, rated after 12-17 days.
Test [15] concerns green foxtail (Setaria viridis). Nature of the test: Preemergence herbicidal activity, green foxtail. As to conditions: Rate of Application 0.3 Kg/Ha, examined after 12-17 days.
The test system of test [16] is common chickweed (Stellaria media). Nature of the test: Postemergence herbicidal activity, chickweed. As to conditions: rate of application 0.3 Kg/Ha, rated after 12-17 days.
Test [17] has as its system field corn (Zea mays var. Pioneer 3732). The test can be described thus: Postemergence herbicidal activity, corn. To be noted: rate of application 0.3 Kg/Ha, rated after 12-17 days.
The subject of test [18] is common chickweed (Stellaria media). The test can be described thus: Preemergence herbicidal activity, chickweed. To be noted: Rate of Application 0.3 Kg/Ha, examined after 12-17 days.
The subject of test [19] is common cocklebur (Xanthium strumarium L.). Nature of the test: Preemergence herbicidal activity, cocklebur. As to conditions: Rate of Application 0.3 Kg/Ha, examined after 12-17 days.
The subject of test [20] is soybean (Glycine max var. Winchester). The test can be described thus: Postemergence herbicidal activity, soybean. As to conditions: rate of application 0.3 Kg/Ha, rated after 12-17 days.

For the molecule `CCN(CC)Cc1cc2c(Cl)ccc(-n3c(=O)cc(C(F)(F)F)n(C)c3=O)c2o1` [Compound 257], in [1], the “Postemergence herbicidal activity (% control) ABUTH” value came out at 100%. Moreover, the “PREEMERGENCE HERBICIDAL ACTIVITY (% CONTROL) CRN” value in test [2] worked out at 10%. For the same molecule, in test [3], the “PREEMERGENCE HERBICIDAL ACTIVITY (% CONTROL) SORHA” value came out at 10%. Also, the “PREEMERGENCE HERBICIDAL ACTIVITY (% CONTROL) ABUTH” value in [4] is on record as 90%. Also, in test [5], the “Postemergence herbicidal activity (% control) IPOSS” value amounted to 60%. For the same molecule, in test [6], the “Postemergence herbicidal activity (% control) XANPE” value came out at 70%. In addition, in test [7], the “Postemergence herbicidal activity (% control) SETVI” value is 70%. The “PREEMERGENCE HERBICIDAL ACTIVITY (% CONTROL) SOY” value in test [8] amounted to 40%. In [9], the “PREEMERGENCE HERBICIDAL ACTIVITY (% CONTROL) ALOMY” value turned out to be 20%. Also, in [10], the “Postemergence herbicidal activity (% control) SORHA” value turned out to be 50%. The “PREEMERGENCE HERBICIDAL ACTIVITY (% CONTROL) IPOSS” value in test [11] was determined as 70%. For the same molecule, the “Postemergence herbicidal activity (% control) ALOMY” value in test [12] is listed as 30%. The “PREEMERGENCE HERBICIDAL ACTIVITY (% CONTROL) WHT” value in test [13] turned out to be 0%. Besides, the “Postemergence herbicidal activity (% control) WHT” value in test [14] is recorded as 20%. Besides, the “PREEMERGENCE HERBICIDAL ACTIVITY (% CONTROL) SETVI” value in test [15] is on record as 70%. Moreover, in test [16], the “Postemergence herbicidal activity (% control) STEME” value is 30%. Moreover, the “Postemergence herbicidal activity (% control) CRN” value in test [17] is 70%. Moreover, in [18], the “PREEMERGENCE HERBICIDAL ACTIVITY (% CONTROL) STEME” value is listed as 0%. Further, the “PREEMERGENCE HERBICIDAL ACTIVITY (% CONTROL) XANPE” value in test [19] came to 20%. In test [20], the “Postemergence herbicidal activity (% control) SOY” value is listed as 70%.
Take `CCOC(OCC)c1cc2c(Cl)cc(F)c(-n3c(=O)cc(C(F)(F)F)n(C)c3=O)c2o1` [Compound 245]: in [1], the “Postemergence herbicidal activity (% control) ABUTH” value turned out to be 100%. Further, in test [2], the “PREEMERGENCE HERBICIDAL ACTIVITY (% CONTROL) CRN” value amounted to 80%. Moreover, the “PREEMERGENCE HERBICIDAL ACTIVITY (% CONTROL) SORHA” value in [3] is reported as 80%. For the same molecule, in [4], the “PREEMERGENCE HERBICIDAL ACTIVITY (% CONTROL) ABUTH” value was determined as 100%. Further, the “Postemergence herbicidal activity (% control) IPOSS” value in test [5] came to 100%. In addition, the “Postemergence herbicidal activity (% control) XANPE” value in test [6] is 70%. For the same molecule, in test [7], the “Postemergence herbicidal activity (% control) SETVI” value is given as 70%. In test [8], the “PREEMERGENCE HERBICIDAL ACTIVITY (% CONTROL) SOY” value is 100%. In test [9], the “PREEMERGENCE HERBICIDAL ACTIVITY (% CONTROL) ALOMY” value came out at 70%. Further, the “Postemergence herbicidal activity (% control) SORHA” value in test [10] is 70%. Moreover, the “PREEMERGENCE HERBICIDAL ACTIVITY (% CONTROL) IPOSS” value in test [11] came to 100%. Besides, in test [12], the “Postemergence herbicidal activity (% control) ALOMY” value came to 50%. Besides, the “PREEMERGENCE HERBICIDAL ACTIVITY (% CONTROL) WHT” value in test [13] was 60%. Besides, the “Postemergence herbicidal activity (% control) WHT” value in test [14] was 40%. Also, the “PREEMERGENCE HERBICIDAL ACTIVITY (% CONTROL) SETVI” value in test [15] stood at 100%. Further, the “Postemergence herbicidal activity (% control) STEME” value in test [16] is 60%. Moreover, the “Postemergence herbicidal activity (% control) CRN” value in test [17] was 75%. In addition, the “PREEMERGENCE HERBICIDAL ACTIVITY (% CONTROL) STEME” value in [18] was 90%. For the same molecule, the “PREEMERGENCE HERBICIDAL ACTIVITY (% CONTROL) XANPE” value in test [19] turned out to be 100%. Also, the “Postemergence herbicidal activity (% control) SOY” value in [20] is on record as 85%.
In the case of `CN(C)C(=O)c1cc2c(Cl)cc(F)c(-n3c(=O)cc(C(F)(F)F)n(C)c3=O)c2o1` [Compound 275], the “Postemergence herbicidal activity (% control) ABUTH” value in test [1] is listed as 100%. Moreover, the “PREEMERGENCE HERBICIDAL ACTIVITY (% CONTROL) CRN” value in [2] was 100%. Besides, the “PREEMERGENCE HERBICIDAL ACTIVITY (% CONTROL) SORHA” value in [3] is listed as 95%. For the same molecule, the “PREEMERGENCE HERBICIDAL ACTIVITY (% CONTROL) ABUTH” value in [4] amounted to 100%. For the same molecule, in test [5], the “Postemergence herbicidal activity (% control) IPOSS” value is listed as 100%. The “Postemergence herbicidal activity (% control) XANPE” value in test [6] is 100%. Moreover, in [7], the “Postemergence herbicidal activity (% control) SETVI” value is listed as 100%. Further, the “PREEMERGENCE HERBICIDAL ACTIVITY (% CONTROL) SOY” value in [8] was 100%. Besides, the “PREEMERGENCE HERBICIDAL ACTIVITY (% CONTROL) ALOMY” value in [9] came to 80%. Further, the “Postemergence herbicidal activity (% control) SORHA” value in test [10] is listed as 100%. Moreover, the “PREEMERGENCE HERBICIDAL ACTIVITY (% CONTROL) IPOSS” value in test [11] amounted to 100%. The “Postemergence herbicidal activity (% control) ALOMY” value in test [12] stood at 95%. In addition, the “PREEMERGENCE HERBICIDAL ACTIVITY (% CONTROL) WHT” value in test [13] came to 80%. The “Postemergence herbicidal activity (% control) WHT” value in test [14] turned out to be 70%. In addition, in [15], the “PREEMERGENCE HERBICIDAL ACTIVITY (% CONTROL) SETVI” value was 100%. Also, the “Postemergence herbicidal activity (% control) STEME” value in test [16] amounted to 100%. In [17], the “Postemergence herbicidal activity (% control) CRN” value is listed as 90%. In test [18], the “PREEMERGENCE HERBICIDAL ACTIVITY (% CONTROL) STEME” value worked out at 100%. For the same molecule, the “PREEMERGENCE HERBICIDAL ACTIVITY (% CONTROL) XANPE” value in test [19] is 100%. Further, the “Postemergence herbicidal activity (% control) SOY” value in test [20] was found to be 100%.
